Patent publication US4803275A, “2-oxo-5-methyl-6-[4-heptene]-2H-pyrano[3,2-c]pyridine” (Takeda Chemical Industries, Ltd., priority 1986, dated 1989)
Converted amounts (≈) assume the structure as drawn.

Legend:
[1] = test system: Saccharomyces cerevisiae IFO 0209; experiment: Antimicrobial activity; assay type: cell-based; details: IFO0209, TSA medium containing 1% glucose, read-out: Minimum Inhibitory Concentration (MIC)
Pyricularia oryzae P-18 = experiment: microbe, parasite or virus in culture; assay type: cell-based; details: P18, read-out: Minimum Inhibitory Concentration (MIC)
[2] = test system: Proteus vulgaris IFO 3045; experiment: Antimicrobial activity; assay type: cell-based; details: IFO3045, TSA medium containing 1% glucose, read-out: Minimum Inhibitory Concentration (MIC)
[3] = test system: Pseudomonas aeruginosa IFO 3080; experiment: Antimicrobial activity; assay type: cell-based; details: IFO3080, TSA medium containing 1% glucose, read-out: Minimum Inhibitory Concentration (MIC)
Candida utilis IFO 0619 = experiment: Antimicrobial activity; assay type: cell-based; details: Williopsis jadinii, IFO0619, TSA medium containing 1% glucose, read-out: Minimum Inhibitory Concentration (MIC)
Escherichia coli K 12 = experiment: Antimicrobial activity; assay type: cell-based; details: K12, TSA medium containing 1% glucose, read-out: Minimum Inhibitory Concentration (MIC)
[4] = test system: Candida parakrusei IFO 0640; experiment: Antimicrobial activity; assay type: cell-based; details: IFO0640, TSA medium containing 1% glucose, read-out: Minimum Inhibitory Concentration (MIC)
[5] = Acute toxicity, single intraperitoneal dose in mice; details: mouse, in vivo, ip
[6] = test system: Bacillus subtilis PCI 219; experiment: Antimicrobial activity; assay type: cell-based; details: PCI219, TSA medium containing 1% glucose, read-out: Minimum Inhibitory Concentration (MIC)
Solubility = assay type: physicochemical
[7] = test system: Rhodotorula rubra IFO 0907; experiment: Antimicrobial activity; assay type: cell-based; details: IFO0907, TSA medium containing 1% glucose, read-out: Minimum Inhibitory Concentration (MIC)
[8] = test system: Candida albicans IFO 0583; experiment: Antimicrobial activity; assay type: cell-based; details: IFO0583, TSA medium containing 1% glucose, read-out: Minimum Inhibitory Concentration (MIC)
[9] = test system: Aspergillus niger IFO 4066; experiment: Antimicrobial activity; assay type: cell-based; details: IFO4066, TSA medium containing 1% glucose, read-out: Minimum Inhibitory Concentration (MIC)
[10] = test system: Candida tropicalis IFO 0006; experiment: Antimicrobial activity; assay type: cell-based; details: IFO0006, TSA medium containing 1% glucose, read-out: Minimum Inhibitory Concentration (MIC)
[11] = test system: Penicillium chrysogenum IFO 4626; experiment: Antimicrobial activity; assay type: cell-based; details: IFO4626, TSA medium containing 1% glucose, read-out: Minimum Inhibitory Concentration (MIC)
[12] = test system: Trichophyton rubrum IFO 5467; experiment: Antimicrobial activity; assay type: cell-based; details: IFO5467, TSA medium containing 1% glucose, read-out: Minimum Inhibitory Concentration (MIC)
[13] = test system: synthesis of fatty acid (rat liver homogenates); experiment: Inhibitory activity of the synthesis of fatty acid (rat liver homogenates, 1-14C-acetate); assay type: biochemical, rat (SD-strain); details: vs. no addition of the inhibiting agent, 37° C., 60 min
Experimental: Determination of the Inhibitory activity of the synthesis of fatty acid was conducted by using homogenates prepared from rat livers. Preparation of the rat liver homogenates, composition of the reaction solution for determination of inhibitory activity and method of the determination were in accordance with the method by J. Iliffe et al. described on "Biochemical Journal" 91, 369 (1964) and the method by T. Kariya et al. described on "Biochemical and Biophysical Research Communications" 80, 1022 (1978). More specifically, SD-strain male rats (6-week old) had been fasted for 2 days and then refed for 24 hours. They were killed by blood letting. The livers were then removed immediately, to which was added a 0.25M sucrose solution containing 2 mM EDTA, 5 mM nicotinamide and 1 mM 2-mercaptoethanol so that the final volume of the solution may be 4 ml relative to 1 g of the wet weight of the livers. […]
Into a 10 ml flask containing 1.85 ml of a reaction mixture consisting of 45 mM of tris-HCl buffer (pH 7.4), 10 mM of KHCO3, 4 mM of MgCl2, 45 mM of KCl, 5 mM of K2 HPO4, 15 mM of potassium citrate, 1 mM of NADP, 2 mM of ATP, 5 mM of glucose-6-phosphate, 0.4 mM of coenzyme A, 5 mM of dithiothreitol and 0.5 ml of the enzyle solution, was blown a mixture gas (95% O2 :5% CO2). […] The radio-activity extracted into the petroleum ether layer was measured.

Candida krusei IFO 1395 = experiment: Antimicrobial activity; assay type: cell-based; details: Pichia kudriavzevii, IFO1395, TSA medium containing 1% glucose, read-out: Minimum Inhibitory Concentration (MIC)
[14] = test system: Candida parapsilosis IFO 1396; experiment: Antimicrobial activity; assay type: cell-based; details: Lodderomyces parapsilosis, IFO1396, TSA medium containing 1% glucose, read-out: Minimum Inhibitory Concentration (MIC)
[15] = test system: Trichophyton mentagrophytes IFO 7522; experiment: Antimicrobial activity; assay type: cell-based; details: IFO7522, TSA medium containing 1% glucose, read-out: Minimum Inhibitory Concentration (MIC)
Bacillus cereus IFO 3514 = experiment: Antimicrobial activity; assay type: cell-based; details: IFO3514, TSA medium containing 1% glucose, read-out: Minimum Inhibitory Concentration (MIC)
[16] = test system: Staphylococcus aureus FDA 209 P; experiment: Antimicrobial activity; assay type: cell-based; details: FDA209, TSA medium containing 1% glucose, read-out: Minimum Inhibitory Concentration (MIC)
[17] = test system: Cryptococcus neoformans IFO 0410; experiment: Antimicrobial activity; assay type: cell-based; details: IFO0410, TSA medium containing 1% glucose, read-out: Minimum Inhibitory Concentration (MIC)

SMILES: CCC/C=C/CCC1Oc2cc[nH]c(=O)c2C=C1C (stereo not drawn) [FA-4283]
- MIC [1]: > 100 µg/mL
- MIC (Pyricularia oryzae P-18): 3.18 µg/mL (≈ 12.3 µM)
- MIC [2]: > 100 µg/mL
- MIC [3]: > 100 µg/mL
- MIC (Candida utilis IFO 0619): 3.13 µg/mL (≈ 12.1 µM)
- MIC (Escherichia coli K 12): > 100 µg/mL
- MIC [4]: > 100 µg/mL
- LD50 [5]: ≥ 400 mg/kg
- MIC [6]: > 100 µg/mL
- Solubility (Solubility; chloroform): readily soluble
- Solubility (Solubility; diethyl ether): soluble
- Solubility (Solubility; dimethyl sulfoxide): readily soluble
- Solubility (Solubility; dimethyl-formamide): readily soluble
- Solubility (Solubility; ethanol): readily soluble
- Solubility (Solubility; ethyl acetate): soluble
- Solubility (Solubility; methanol): readily soluble
- Solubility (Solubility; n-hexane): sparingly soluble
- Solubility (Solubility; petroleum ether): sparingly soluble
- Solubility (Solubility; water): insoluble
- MIC [7]: 0.39 µg/mL (≈ 1.5 µM)
- MIC [8]: 3.13 µg/mL (≈ 12.1 µM)
- MIC [9]: > 100 µg/mL
- MIC [10]: 50 µg/mL (≈ 193 µM)
- MIC [11]: > 100 µg/mL
- MIC [12]: 6.25 µg/mL (≈ 24.1 µM)
- inhibitory activity of the synthesis of fatty acid ([13]; 5×10^-4 M): 97%
- inhibition of the synthesis of fatty acid ([13]; 10^-3 M): 98%
- MIC (Candida krusei IFO 1395): > 100 µg/mL
- MIC [14]: > 100 µg/mL
- MIC [15]: 6.25 µg/mL (≈ 24.1 µM)
- MIC (Bacillus cereus IFO 3514): > 100 µg/mL
- MIC [16]: > 100 µg/mL
- MIC [17]: 25 µg/mL (≈ 96.4 µM)
